The NIST ThermoML archive (doi:10.1021/acs.jced.6b00786)
± gives the expanded uncertainty stated by the source.

Test: xn = mol fraction of the nth substance listed
Conditions: 101 kPa, Liquid, Vibrating tube method

Q: Which mass density (278.15 K, x1 = 1) does the source give for `NC=O` [formamide] + O here?
A: Its mass density is 1146.62 ± 0.2 kg/m3.

Q: What about the mass density (279.15 K, x1 = 0.00244) of the same compound?
A: Its mass density is 1001 ± 0.044 kg/m3.

Q: And the mass density (279.15 K, x1 = 0.00515)?
A: The mass density was 1002.18 ± 0.045 kg/m3.

Q: And the mass density (279.15 K, x1 = 0.0086)?
A: Its mass density is 1003.65 ± 0.045 kg/m3.

Q: What about the mass density (279.15 K, x1 = 0.02032) of the same compound?
A: The mass density was 1008.52 ± 0.048 kg/m3.

Q: What about the mass density (279.15 K, x1 = 0.03478) of the same compound?
A: Its mass density is 1014.19 ± 0.051 kg/m3.

Q: And the mass density (279.15 K, x1 = 0.04976)?
A: Its mass density is 1019.74 ± 0.054 kg/m3.

Q: And the mass density (279.15 K, x1 = 0.06674)?
A: The mass density was 1025.57 ± 0.058 kg/m3.

Q: And the mass density (279.15 K, x1 = 0.08229)?
A: The mass density was 1030.68 ± 0.061 kg/m3.

Q: And the mass density (279.15 K, x1 = 0.1171)?
A: The mass density was 1041.07 ± 0.069 kg/m3.

Q: And the mass density (280.15 K, x1 = 0.00244)?
A: The mass density was 1000.95 ± 0.044 kg/m3.

Q: And the mass density (280.15 K, x1 = 0.00515)?
A: Its mass density is 1002.11 ± 0.045 kg/m3.

Q: What about the mass density (280.15 K, x1 = 0.0086) of the same compound?
A: The mass density was 1003.57 ± 0.045 kg/m3.

Q: What about the mass density (280.15 K, x1 = 0.02032) of the same compound?
A: Its mass density is 1008.39 ± 0.048 kg/m3.

Q: And the mass density (280.15 K, x1 = 0.03478)?
A: Its mass density is 1014 ± 0.051 kg/m3.

Q: And the mass density (280.15 K, x1 = 0.04976)?
A: Its mass density is 1019.49 ± 0.054 kg/m3.

Q: What about the mass density (280.15 K, x1 = 0.06674) of the same compound?
A: The mass density was 1025.28 ± 0.058 kg/m3.

Q: What about the mass density (280.15 K, x1 = 0.08229) of the same compound?
A: Its mass density is 1030.32 ± 0.061 kg/m3.

Q: What about the mass density (280.15 K, x1 = 0.1171) of the same compound?
A: The mass density was 1040.65 ± 0.069 kg/m3.

Q: What about the mass density (281.15 K, x1 = 0.00244) of the same compound?
A: Its mass density is 1000.89 ± 0.044 kg/m3.

Q: What about the mass density (281.15 K, x1 = 0.00515) of the same compound?
A: Its mass density is 1002.04 ± 0.044 kg/m3.

Q: And the mass density (281.15 K, x1 = 0.0086)?
A: Its mass density is 1003.47 ± 0.045 kg/m3.

Q: What about the mass density (281.15 K, x1 = 0.02032) of the same compound?
A: The mass density was 1008.25 ± 0.048 kg/m3.

Q: What about the mass density (281.15 K, x1 = 0.03478) of the same compound?
A: Its mass density is 1013.8 ± 0.051 kg/m3.

Q: And the mass density (281.15 K, x1 = 0.04976)?
A: The mass density was 1019.23 ± 0.054 kg/m3.

Q: What about the mass density (281.15 K, x1 = 0.06674) of the same compound?
A: Its mass density is 1024.97 ± 0.058 kg/m3.

Q: And the mass density (281.15 K, x1 = 0.08229)?
A: The mass density was 1029.97 ± 0.061 kg/m3.

Q: What about the mass density (281.15 K, x1 = 0.1171) of the same compound?
A: The mass density was 1040.23 ± 0.069 kg/m3.

Q: What about the mass density (282.15 K, x1 = 0.00244) of the same compound?
A: Its mass density is 1000.81 ± 0.044 kg/m3.

Q: What about the mass density (282.15 K, x1 = 0.00515) of the same compound?
A: The mass density was 1001.94 ± 0.044 kg/m3.

Q: What about the mass density (282.15 K, x1 = 0.0086) of the same compound?
A: The mass density was 1003.37 ± 0.045 kg/m3.

Q: And the mass density (282.15 K, x1 = 0.02032)?
A: Its mass density is 1008.09 ± 0.048 kg/m3.

Q: And the mass density (282.15 K, x1 = 0.03478)?
A: Its mass density is 1013.58 ± 0.051 kg/m3.

Q: And the mass density (282.15 K, x1 = 0.04976)?
A: The mass density was 1018.97 ± 0.054 kg/m3.

Q: What about the mass density (282.15 K, x1 = 0.06674) of the same compound?
A: The mass density was 1024.66 ± 0.057 kg/m3.

Q: And the mass density (282.15 K, x1 = 0.08229)?
A: Its mass density is 1029.6 ± 0.06 kg/m3.

Q: What about the mass density (282.15 K, x1 = 0.1171) of the same compound?
A: The mass density was 1039.81 ± 0.069 kg/m3.

Q: And the mass density (283.15 K, x1 = 0.00244)?
A: Its mass density is 1000.72 ± 0.044 kg/m3.

Q: And the mass density (283.15 K, x1 = 0.00515)?
A: Its mass density is 1001.84 ± 0.044 kg/m3.

Q: What about the mass density (283.15 K, x1 = 0.0086) of the same compound?
A: The mass density was 1003.25 ± 0.045 kg/m3.

Q: What about the mass density (283.15 K, x1 = 0.02032) of the same compound?
A: Its mass density is 1007.94 ± 0.048 kg/m3.

Q: And the mass density (283.15 K, x1 = 0.03478)?
A: The mass density was 1013.36 ± 0.051 kg/m3.

Q: And the mass density (283.15 K, x1 = 0.04976)?
A: The mass density was 1018.7 ± 0.054 kg/m3.

Q: And the mass density (283.15 K, x1 = 0.06674)?
A: The mass density was 1024.35 ± 0.057 kg/m3.

Q: What about the mass density (283.15 K, x1 = 0.08229) of the same compound?
A: Its mass density is 1029.24 ± 0.061 kg/m3.

Q: What about the mass density (283.15 K, x1 = 0.1171) of the same compound?
A: The mass density was 1039.36 ± 0.067 kg/m3.

Q: And the mass density (288.15 K, x1 = 0.00244)?
A: The mass density was 1000.07 ± 0.044 kg/m3.

Q: And the mass density (288.15 K, x1 = 0.00515)?
A: Its mass density is 1001.13 ± 0.044 kg/m3.

Q: What about the mass density (288.15 K, x1 = 0.0086) of the same compound?
A: The mass density was 1002.47 ± 0.045 kg/m3.

Q: What about the mass density (288.15 K, x1 = 0.02032) of the same compound?
A: Its mass density is 1006.89 ± 0.047 kg/m3.

Q: And the mass density (288.15 K, x1 = 0.03478)?
A: The mass density was 1012.11 ± 0.05 kg/m3.

Q: What about the mass density (288.15 K, x1 = 0.04976) of the same compound?
A: Its mass density is 1017.23 ± 0.053 kg/m3.

Q: What about the mass density (288.15 K, x1 = 0.06674) of the same compound?
A: The mass density was 1022.65 ± 0.056 kg/m3.

Q: What about the mass density (288.15 K, x1 = 0.08229) of the same compound?
A: Its mass density is 1027.38 ± 0.059 kg/m3.

Q: And the mass density (288.15 K, x1 = 0.1171)?
A: Its mass density is 1037.14 ± 0.067 kg/m3.

Q: What about the mass density (288.15 K, x1 = 0.1745) of the same compound?
A: Its mass density is 1051.09 ± 0.076 kg/m3.

Q: What about the mass density (288.15 K, x1 = 0.2169) of the same compound?
A: The mass density was 1059.95 ± 0.082 kg/m3.

Q: What about the mass density (288.15 K, x1 = 0.2557) of the same compound?
A: Its mass density is 1067.27 ± 0.087 kg/m3.

Q: What about the mass density (288.15 K, x1 = 0.3026) of the same compound?
A: Its mass density is 1075.25 ± 0.094 kg/m3.

Q: What about the mass density (288.15 K, x1 = 0.351) of the same compound?
A: The mass density was 1082.54 ± 0.1 kg/m3.

Q: What about the mass density (288.15 K, x1 = 0.4027) of the same compound?
A: Its mass density is 1089.57 ± 0.11 kg/m3.

Q: And the mass density (288.15 K, x1 = 0.4487)?
A: The mass density was 1095.2 ± 0.11 kg/m3.

Q: What about the mass density (288.15 K, x1 = 0.4886) of the same compound?
A: The mass density was 1099.61 ± 0.12 kg/m3.

Q: What about the mass density (288.15 K, x1 = 0.5601) of the same compound?
A: Its mass density is 1106.92 ± 0.13 kg/m3.

Q: What about the mass density (288.15 K, x1 = 0.5916) of the same compound?
A: The mass density was 1109.89 ± 0.13 kg/m3.

Q: And the mass density (288.15 K, x1 = 0.6674)?
A: Its mass density is 1116.35 ± 0.14 kg/m3.

Q: What about the mass density (288.15 K, x1 = 0.7066) of the same compound?
A: Its mass density is 1119.42 ± 0.15 kg/m3.
